Earlier results as cited in US20060116331A1, “Glycosylceramide analogues” (BIOMIRA, INC., priority 2002, published 2006).
“Also recorded” adds a separate entry of the source.

Assays:
Vα14 NKT cells = settings: for CD1d-restricted, TCR-mediated activation of Vα14 NKT cells (ability to elicit natural killer cell activity): Kawano et al. (1997); for stimulation of Vα14 NKT cells: structure-activity relationship studies
spleen cells = settings: Ijima et al. (1998)

| Compound | CD1d-restricted, TCR-mediated activation of Vα14 NKT cells (ability to elicit natural killer cell activity) (Vα14 NKT cells) | further results |
| --- | --- | --- |
| α-mannosylceramide [α-ManCer] | inactive | stimulation of Vα14 NKT cells (Vα14 NKT cells): failed to stimulate |
| 3,4-deoxy α-GalCer | active | – |
| Galβ1-3Galα1-1′Cer | active | – |
| ceramide | inactive | – |
| Galα1-2Galα1-1′Cer | active | – |
| CCCCCCCCCCCCCCC[C@@H](O)[C@H](CO[C@H]1O[C@H](CO)[C@@H](O)[C@H](O)[C@H]1O)NC(=O)CCCCCCCCCCCCC [AGL-563] | – | MLR activity (stimulation of spleen cell proliferation by pretreated DCs) (spleen cells): reduced, but did not abolish, activity |
| CCCCCCCCCCCCCCCCCCCCCCCCCC(=O)N[C@@H](CO[C@H]1O[C@H](CO)[C@H](O)[C@H](O)[C@H]1O)[C@H](O)[C@H](O)CCCCCCCCCCCCCC [α-GalCer, α-galactosylceramide] | active; also recorded: most active | Th1/Th2 bias (NKT cells): unbiased |
| Galα1-6Galα1-1′Cer | active | – |
| CCCCCCCCCCCCCCCCCCCCCCCC(=O)N[C@@H](CO[C@H]1O[C@H](CO)[C@H](O)[C@H](O)[C@H]1O)[C@H](O)[C@H](O)CCCCC [OCH] | – | Th1/Th2 bias (NKT cells): induces Th2 bias |
| α-glucosylceramide [α-GlcCer] | active | stimulation of Vα14 NKT cells (Vα14 NKT cells): readily stimulate |
| Galα1-6Glcα1-1′Cer | active | – |
| Galα1-4Glcβ1-1′Cer | inactive | – |
| CCCCCCCCCCCCCCC[C@@H](O)[C@H](CO[C@H]1O[C@H](CO)[C@H](O)[C@H](O)[C@H]1O)NC(=O)CCCCCCCCCCCCC [AGL-517] | – | MLR activity (stimulation of spleen cell proliferation by pretreated DCs) (spleen cells): active |
